The values that follow come from publication PMC12442245, “Activity Analysis of the P2X Receptor Antagonist PPADS against Signal Transducer and Activator of Transcription Proteins” (Chembiochem, 2025).

The test has as its target T1, STAT5b (Homo sapiens, UniProt P51692).
T1 sequence (P51692 1-787): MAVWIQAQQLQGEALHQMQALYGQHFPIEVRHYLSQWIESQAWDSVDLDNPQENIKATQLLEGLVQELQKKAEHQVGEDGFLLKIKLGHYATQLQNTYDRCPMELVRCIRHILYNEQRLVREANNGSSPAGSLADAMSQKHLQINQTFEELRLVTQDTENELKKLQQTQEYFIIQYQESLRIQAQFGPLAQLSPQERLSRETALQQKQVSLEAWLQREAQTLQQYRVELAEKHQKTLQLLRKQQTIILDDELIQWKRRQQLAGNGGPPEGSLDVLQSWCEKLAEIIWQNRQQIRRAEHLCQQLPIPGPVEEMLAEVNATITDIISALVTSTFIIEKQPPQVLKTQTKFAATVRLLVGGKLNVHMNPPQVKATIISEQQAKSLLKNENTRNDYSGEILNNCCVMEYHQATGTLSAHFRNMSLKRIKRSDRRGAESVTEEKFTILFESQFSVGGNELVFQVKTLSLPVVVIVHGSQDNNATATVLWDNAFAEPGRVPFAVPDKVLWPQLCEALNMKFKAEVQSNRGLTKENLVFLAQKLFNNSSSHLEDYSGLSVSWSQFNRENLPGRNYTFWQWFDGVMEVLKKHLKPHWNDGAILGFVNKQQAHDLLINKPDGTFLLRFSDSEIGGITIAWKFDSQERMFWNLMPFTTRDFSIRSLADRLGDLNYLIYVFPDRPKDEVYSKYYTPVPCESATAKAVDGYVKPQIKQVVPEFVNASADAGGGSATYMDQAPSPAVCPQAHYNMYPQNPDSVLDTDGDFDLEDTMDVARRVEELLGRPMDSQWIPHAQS
The experiment in a line: HTRF assay, STAT5b. The test is classed as binding. Conditions: STAT5b 80 nM, without reducing agent, 1 h. From the text: The azo dyes PPADS and iso‐PPADS have a deep red color in aqueous solution. […] In order to exclude this possibility, we established homogeneous time‐resolved fluorescence resonance energy transfer (HTRF) assays to confirm the degree of binding between STAT4, STAT5a, and STAT5b and the respective 5‐carboxyfluorescein‐labeled binding peptides used in the FP assay. In addition, an HTRF assay was established for STAT3, one of the STAT proteins targeted to a lesser extent in FP assays, as a specificity control (Figure 1B,C). The STAT protein constructs each contain a 6x‐His‐tag.^[ [15], [16], [17], [22] ^] A Tb^3+‐cryptate fused to an anti‐6x‐His antibody was chosen as the long‐lived fluorescent donor, while the carboxyfluorescein linked to the respective STAT‐binding peptides served as the acceptor (Figure 2A). Emission was measured with a time delay of 60 μs after excitation, allowing any initial compound fluorescence to decay beforehand. […]
Screening of chemical libraries comprising approximately 5000 known bioactive compounds in fluorescence polarization-based assays against phosphorylation-dependent protein-protein interaction domains, including STAT proteins, has been described.[1] […]
Fluorescence polarization assays
Competitive fluorescence polarization (FP) assays for STAT1,[2] […] Briefly, peptide binding to proteins was analyzed using the following carboxyfluorescein (CF) -labelled pepti des at a concentration of 10 nM: STAT1: 5-CF-GpYDKPHVL-OH, STAT3: 5-CF-GpYLPQTV -NH2, STAT4: 5-CF-GpYLPQNID-OH, STAT5a and STAT5b: 5-CF-GpYLVLDKW-OH, STAT6: 5- […]
CFGp[…]-OH. […] FP was measured using an Infinite F500 plate reader (Tecan) and measurements were converted into percent inhibition according to the binding curve equation. Curves were plotted and best fits calculated using OriginPro […]
Homogenous time-resolved fluorescence (HTRF) assays for STAT3, STAT4, STAT5a and STAT5b were carried out using Cisbio Monoclonal Antibody Anti-6His-Tb Gold as the fluorescence donor (Perkin Elmer) and the corresponding CF-labelled binding peptide as the acceptor. […] The average reading from 3 wells was obtained. […]
For orientation: In TR-FRET formats the signal depends on donor and acceptor labels being close together.

For `Cc1nc(/N=N/c2ccc(S(=O)(=O)O)cc2S(=O)(=O)O)c(COP(=O)(O)O)c(C=O)c1O` [PPADS, pyridoxalphosphate‐6‐azophenyl‐2',4'‐disulfonic acid], half-maximal inhibition (IC50) required 1220 ± 270 nM.

As to `Cc1nc(/N=N/c2cc(S(=O)(=O)O)ccc2S(=O)(=O)O)c(COP(=O)(O)O)c(C=O)c1O` [iso‐PPADS], inhibition was half-maximal at 800 ± 100 nM (IC50).
